Experimental data published in US9139810B2, “Method for culturing microorganisms to incorporate a substitue element” (priority 2010, dated 2015).

Legend:
E. coli K12 NBRC 3301 = experiment: Growth and Si content of acetone-treated cells by ICP/MS (Example 4); type: cell-based, Escherichia coli; settings: lac 1 + compound 5
B. subtilis NBRC13719 = type: cell-based, Bacillus subtilis; settings: Glc(1) + Yex (0.5); day 5
[1] = tested on: B. subtilis Marburg NBRC13719; experiment: Growth and Si content of acetone-treated cells by ICP/MS (Example 4); type: cell-based, Bacillus subtilis; settings: for D 1 OD 660 nm: 22 hours; for D1ACW: acetone-treated dried cells
E. coli K12NBRC3301 = experiment: S starvation, adaptation culture with dSi and elementary analysis of cells by ICP-MS (Example 16); type: cell-based, Escherichia coli
S. cerevisiae NBRC0268 = experiment: Growth and Si content of acetone-treated cells by ICP/MS (Example 4); type: cell-based, Saccharomyces cerevisiae; settings: lac 3 + compound 5
E. coli K12 NBRC3301 [2] = experiment: Growth and adaptation culture in C(αC+X)Y medium with mmSi (Example 2, FIG. 2); type: cell-based, Escherichia coli
Method: A C source-limited medium (C(αC) medium) was prepared by adding a limited amount of lactate Na as C source (denoted as “αC”) to a C source-deleted C (−) medium. Escherichia coli growth was then examined using a C(αC+X) medium prepared by adding a methyl group-containing organic silicon compound mmSi (methyltrimethoxysilane (see Tables 2 and 3 for abbreviations for the compound)) to the C(αC) medium as a C source substitute compound; that is, an X-containing compound. Moreover, the effects resulting from adaptation culture were examined (specifically, after completion of the 1st (T1) culture, 2nd subculture (T2) was started in a medium of the same composition).
C source substitute compound: X: mmSi (methyltrimethoxysilane). Culture conditions: 100 mL/Erlenmeyer flask; 33° C.; and 130 rpm. At the time of completion of the 1st culture of, a portion of the culture fluid was pipetted off. Cells were washed by centrifugation and then seeded in a medium of the same composition. The OD value at the initiation of the subculture was adjusted to be close to the initial OD value of the 1st culture generation.
In a manner similar to that in Example 1, E. coli K12 starter cells were grown in a GY medium, cells were washed, and then subjected to C source starvation culture. The resulting cells were seeded as starter cells in a medium. On day 2, the 1st culture (denoted as “T1d2” in FIG. 2) cells were washed and then the cells were seeded as starter cells in a medium of the same composition for 2nd subculture for adaptation. On day 2 of the 2nd subculture (T2d2), the growth was measured.

E. coli K12 NBRC3301 [3] = settings: C(αC)Y medium, FIG. 1
E. coli K-12 (NBRC3993) = settings: additive (mg/mL as printed in the row) to S(−)fa medium, 37° C.
E. coli K12 NBRC3301 [4] = type: cell-based, Escherichia coli
[5] = S(dSi)fa medium, d 3, mean of 2 to 3 flasks
[6] = lac 2 mg/mL + Y 0.5 mg/mL, FIG. 2

Q: With `CCO[Si](C)(C)OCC` [emSi, Diethoxydimethylsilane] as the molecule, how does the “D 1 OD 660 nm” value (E. coli K12 NBRC 3301; 22 hours) read?
A: The value was 1.79.

Q: And the D1ACW (E. coli K12 NBRC 3301; acetone-treated dried cells)?
A: The D1ACW was 203 mg/100 mL.

Q: And the “OD 660 nm (d5)” value (B. subtilis NBRC13719)?
A: The value was 6.69.

Q: What about the “D 1 OD 660 nm” value ([1]; lac 1 + compound 5) of the same molecule?
A: Its value is 2.48.

Q: And the D1ACW ([1]; lac 1 + compound 5)?
A: Its D1ACW is 289 mg/100 mL.

Q: What does the source list for Sodium disilicate [dSi]?
A: OD 660 nm at end of 4th subculture of adaptation culture (E. coli K12NBRC3301; [5]): 1.93; OD 660 nm at end of 5th subculture of adaptation culture (E. coli K12NBRC3301; [5]): 3.22; OD 660 nm at end of 3rd subculture of adaptation culture (E. coli K12NBRC3301; S(dSi)fa medium, d 7, mean of 2 to 3 flasks): 1.91; OD 660 nm at end of 2nd subculture of adaptation culture (E. coli K12NBRC3301; S(dSi)fa medium, d 9, mean of 2 to 3 flasks): 2.00; OD 660 nm at end of 1st subculture of adaptation culture (E. coli K12NBRC3301; S(dSi)fa medium, d 13, mean of 2 to 3 flasks): 2.13; OD 660 nm (E. coli K12NBRC3301; test 3, S(−)fa + Na2SO4 (0.02) + dSi (0.4 mg/mL), d3): 170 (OD 6.0); OD 660 nm (E. coli K12NBRC3301; test 4, S(−)fa + dSi (0.4 mg/mL), no S source, d4): 190 (OD 3.0)

Q: `CO[Si](C)(OC)OC` [mmSi, Methyltrimethoxysilane] was tested. Which “D 1 OD 660 nm” value (S. cerevisiae NBRC0268; 22 hours) did it give?
A: Its value is 3.14.

Q: And the D1ACW (S. cerevisiae NBRC0268; acetone-treated dried cells)?
A: Its D1ACW is 274 mg/100 mL.

Q: And the “amount of growth in 2nd subculture versus 1st subculture” value (E. coli K12 NBRC3301 [2]; adaptation culture, T2d2 vs T1d2)?
A: The value was “higher than that of the 1st subculture”.

Q: What about the “OD value compared with control (only limited amount of C source)” value (E. coli K12 NBRC3301 [2]; [6]) of the same molecule?
A: Its value is “increased”.

Q: And the “dose dependence of increases in OD value” (E. coli K12 NBRC3301 [2]; [6])?
A: The value was “in a dose-dependent manner”.

Q: And the “growth on the compound alone” value (E. coli K12 NBRC3301 [2]; no limited C source (rightmost in FIG. 2))?
A: Its value is “did not grow”.

Q: What about the “D 1 OD 660 nm” value ([1]; lac 3 + compound 5) of the same molecule?
A: Its value is 2.

Q: What about the D1ACW ([1]; lac 3 + compound 5) of the same molecule?
A: Its D1ACW is 309 mg/100 mL.

Q: With `CCO` [ethanol] as the molecule, how does the “OD with ethanol equimolar to the ethyl group in emSi, compared with emSi” value (E. coli K12 NBRC3301 [3]) read?
A: Its value is “lower than that of emSi”.

Q: With `O=S(=O)([O-])[O-].[Na+].[Na+]` [Sodium sulfate, Sodium sulfate, anhydrous, reference compound] as the molecule, how does the “OD 660 nm” value (E. coli K12NBRC3301; test 2, S(−)fa + Na2SO4 (0.2 mg/mL), d3) read?
A: Its value is 200 (OD 4.2).

Q: And the “Amount of E. coli K12NBRC3993 growth OD660 × 10 d (cultured for 1 day)” value (E. coli K-12 (NBRC3993))?
A: The value was 0.144.

Q: Which results are given for `O=BOB(O)OB(O)OB=O` [BB, Borax or sodium borate]?
A: colony count and OD value compared with medium with only limited C source (E. coli K12 NBRC3301 [4]; C source substitute compound): increased; OD 660 nm (d5) (E. coli K12 NBRC3301 [4]; Lac (2) + Y, X (10), day 5): 1.59

Q: `N[C@@H](CS)C(=O)O` [L-cysteine] was tested. Which “Amount of E. coli K12NBRC3993 growth OD660 × 10 d (cultured for 1 day)” value (E. coli K-12 (NBRC3993)) did it give?
A: The value was 0.240.
